In PubChem BioAssay AID449762 (Southern Research Specialized Biocontainment Screening …, 2010):
Inconclusive results are not listed.

System: M. tuberculosis H37Rv growth inhibition, 7H9 media
Experiment: M. tuberculosis growth inhibition, HTS (AID 449762);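 further: bacterial growth assessed after seven days of incubation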
Details: for IC90: measured here: IC90 growth inhibition

Row | Structure (SMILES) | IC50 [µM] | IC90 [µM]
1 | C#C[C@]1(O)CC[C@H]2[C@@H]3CCc4cc(OC5CCCC5)ccc4[C@H]3CC[C@@]21C | 35.5 | 48
2 | COC(=O)CSc1[nH]c2ccc(Br)cc2c1[N+](=O)[O-] | 5.64 | 9.31
3 | O=S1(=O)CCC(N=Cc2ccc(-c3ccc(Cl)cc3)o2)C1 (stereo not given) | 54.8 | > 100
4 | CCOC(=O)CSc1nnc(NC(=O)c2ccc3c(c2)OCO3)s1 | 5.67 | 42.3
5 | O=C(Nc1cc(C(F)(F)F)ccc1-n1cncn1)c1ccc([N+](=O)[O-])o1 | 9.55 | 32.5
6 | COc1ccc2c(c1)CCc1c(C(=O)Nc3c(C)n(C)n(-c4ccccc4)c3=O)noc1-2 | 14.2 | > 100
7 | CC1CN(c2ccc([N+](=O)[O-])c(NCCOc3ccc(Cl)cc3)c2)CC(C)N1 (stereo not given) | 9.19 | 12.8
8 | CC1=C(/C=C/C(C)=C/C=C/C(C)=C/C(=O)Nc2ccc(O)cc2)C(C)(C)CCC1 | 41.9 | 59.8
9 | CCOC(=O)C(C)Oc1ccc(NC(=O)C(Cl)(Cl)Cl)cc1 (stereo not given) | 2.38 | 5.08
10 | COc1ccccc1Nc1nc(N)nc(CCl)n1 | 1.67 | 8.82
11 | O=c1c2ccc(Cl)cc2nc(-c2ccc([N+](=O)[O-])cc2)n1O | 82.6 | > 100
12 | Brc1ccc(N/N=C(/N=Nc2nn[nH]n2)c2ccccc2)cc1 | 14.2 | 22.1
13 | O=C(OCc1ccccc1)c1cccc(-c2nnn(Cc3ccccc3)n2)c1 | 67.7 | > 100
14 | O=C(Nc1nc2ccc(F)cc2s1)C1CCN(S(=O)(=O)c2cc([N+](=O)[O-])ccc2Cl)CC1 | 10.9 | 16
15 | Cc1ccc(OCc2cc(C(=O)N(C)Cc3cnc4ccccn34)no2)cc1C | 19.6 | 32
16 | S=C(NCCN1CCOCC1)N/N=C/c1cccs1 | 5.55 | 6.22
17 | CCCCn1c(SCc2ncc(-c3ccccc3)o2)nc2cc(S(N)(=O)=O)ccc21 | 3.3 | 5.84
18 | CC(C)(C)CC(C)(C)c1ccc(OCCOCC[N+](C)(C)Cc2ccccc2)cc1 | 26.2 | 30
19 | Cc1ccc(-c2csc3nc4c5ccccc5c(NCCCN5CCOCC5)nn4c(=O)c23)cc1 | 24.7 | 27.7
20 | Cc1cc(N/N=C2/CCCc3ccccc32)nc2ccccc12 | 31.7 | 37.9
21 | Cc1ccc(C)c(NC(=O)c2cc(-c3ccccc3)nn2-c2ccccc2)c1 | 34.9 | 59.6
22 | CCN(CC)CCN(C(=O)c1ccc(S(=O)(=O)N2CCCC2)cc1)c1nc2cc(C)cc(C)c2s1 | 10.1 | 13.2

Row | Structure (SMILES) | IC50 [µM] | IC90 [µM]
23 | CCOc1ccc(-c2csc(/C(C#N)=C\c3ccc(O)c([N+](=O)[O-])c3)n2)cc1 | 11.1 | > 100
24 | O=C(Cc1ccc([N+](=O)[O-])cc1)Nc1cc(C(F)(F)F)cc(C(F)(F)F)c1 | 2.74 | 3.12
25 | Cc1n[nH]c(=S)n1/N=C/c1cccc(OCc2ccccc2)c1 | 75.4 | > 100
26 | COc1cc2cnc(-c3ccccc3)c(-c3ccc(C(F)(F)F)cc3)c2cc1OC | 44 | > 50
27 | Cc1cc2c(cc1C)/C(=N/NC(=O)c1ccccn1)CCC2 | 7.91 | 23.2
28 | O=C1Nc2ccccc2/C1=N\N=C\C1=C(N2CCOCC2)C(=C\c2ccccc2)/CC1 | 33.4 | 59.8
29 | CC(OC(=O)COc1ccc(Nc2ccccc2)cc1)C(=O)N(C)c1ccccc1 (stereo not given) | < 0.2 | 4.17
30 | Cc1ccc(-c2nc3c(c(=O)c4ccccc4n3C)c(=O)n2Cc2ccco2)cc1 | 11.4 | 36.3
31 | Cc1ccc(/C=C(\NC(=O)c2ccc(C)cc2)c2nc(=S)[nH][nH]2)cc1 | 39.5 | 48.9
32 | Cc1cc(-c2nnc3n2CCCCC3)c(C)n1-c1ccccc1 | 45.7 | 51.4
33 | CO/N=C(\Cn1ncc(N2CCCC2)c(Cl)c1=O)c1ccc(Cl)cc1 | 16.9 | 27.5
34 | CCCCCCCC(=O)N/N=C(/C)c1c(O)cc(C)oc1=O | – | > 100
35 | COc1cc(N=Nc2ccc3ccccc3c2)ccc1O | 37.8 | 63.1
36 | CC12CCC(=O)N1C(C(=O)Nc1ccc(SC(F)F)cc1)CS2 (stereo not given) | 30.2 | 63.1
37 | CCOc1ccc(-c2cc(C)[n+](CCc3ccc(OC)c(OC)c3)c(-c3ccc(OCC)cc3)c2)cc1 | 0.92 | 1.8
38 | CC(C)(C)NC(=O)C(=O)NNC(=O)c1ccc(C(C)(C)C)cc1 | 5.71 | 17.6
39 | O=C(Nc1ccc(OC(F)(F)F)cc1)c1ccc2c(c1)no[n+]2[O-] | < 0.2 | 0.2
40 | Cc1ccc(-c2ccnc(=S)[nH]2)cc1 | 44.9 | > 100
41 | N/C(=N\NC(=O)c1sccc1OCc1ccc(Cl)cc1Cl)c1ccccn1 | 15.7 | 46
42 | Cc1ccc(-c2c[n+](CC(=O)N3c4ccccc4Sc4ccccc43)c3n2CCC3)cc1 | 12.9 | 20.2
43 | Cc1cccc(N2CCN(CCCNC(=O)c3ccc(NC(=O)C4=CSCCO4)cc3)CC2C)c1 (stereo not given) | 19.7 | 29.2
